Several values for one entry are separate records, joined by “and”; a condition that tells them apart may be missing. Equal entries are not always repeated. Inconclusive results and toxic doses are left out.
System: P388 leukemia ip, CD2F1 mice, survival T/C
Test: NCI In Vivo Anticancer Drug Screen. Data for tumor model P388 Leukemia (intraperitoneal) in CD2F1 (CDF1) mice
Settings: endpoint: median survival time, higher = longer survival
In short: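 Mice carrying the transplanted tumor received test compound or vehicle. Survival was recorded in each group, and the value is the treated-group measurement divided by that of the vehicle-treated control group.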

[1] = dose: 50.0 mg/kg/injection, schedule: Q01DX005 (ip), vehicle: Klucel (hydroxypropylcellulose) (HPC)
[2] = dose: 100.0 mg/kg/injection, schedule: Q01DX005 (ip), vehicle: Klucel (hydroxypropylcellulose) (HPC)
[3] = dose: 200.0 mg/kg/injection, schedule: Q01DX005 (ip), vehicle: Klucel (hydroxypropylcellulose) (HPC)
[4] = dose: 50.0 mg/kg/injection, schedule: Q01DX005 (ip), vehicle: saline with Tween-80
[5] = dose: 50.0 mg/kg/injection, schedule: Q01DX009 (ip), vehicle: Klucel (hydroxypropylcellulose) (HPC)
[6] = dose: 100.0 mg/kg/injection, schedule: Q01DX009 (ip), vehicle: Klucel (hydroxypropylcellulose) (HPC)
[7] = dose: 200.0 mg/kg/injection, schedule: Q01DX009 (ip), vehicle: Klucel (hydroxypropylcellulose) (HPC)
[8] = dose: 100.0 mg/kg/injection, schedule: Q01DX005 (ip), vehicle: saline with Tween-80
[9] = dose: 60.0 mg/kg/injection, schedule: Q01DX005 (ip), vehicle: saline with Tween-80
[10] = dose: 120.0 mg/kg/injection, schedule: Q01DX005 (ip), vehicle: saline with Tween-80
[11] = dose: 240.0 mg/kg/injection, schedule: Q01DX005 (ip), vehicle: saline with Tween-80
[12] = dose: 50.0 mg/kg/injection, schedule: Q01DX009 (ip), vehicle: saline
[13] = dose: 100.0 mg/kg/injection, schedule: Q01DX009 (ip), vehicle: saline
[14] = dose: 12.5 mg/kg/injection, schedule: Q01DX009 (ip), vehicle: Klucel (hydroxypropylcellulose) (HPC)
[15] = dose: 25.0 mg/kg/injection, schedule: Q01DX009 (ip), vehicle: Klucel (hydroxypropylcellulose) (HPC)
[16] = dose: 12.5 mg/kg/injection, schedule: Q01DX009 (ip), vehicle: saline
[17] = dose: 50.0 mg/kg/injection, schedule: Q01DX009 (ip), vehicle: saline with Tween-80
[18] = dose: 100.0 mg/kg/injection, schedule: Q01DX009 (ip), vehicle: saline with Tween-80
[19] = dose: 12.5 mg/kg/injection, schedule: Q01DX001 (ip), vehicle: Klucel (hydroxypropylcellulose) (HPC)
[20] = dose: 25.0 mg/kg/injection, schedule: Q01DX001 (ip), vehicle: Klucel (hydroxypropylcellulose) (HPC)
[21] = dose: 50.0 mg/kg/injection, schedule: Q01DX001 (ip), vehicle: Klucel (hydroxypropylcellulose) (HPC)

In the case of `COC(=O)C(Cc1cc(OC)c(OC)c(OC)c1I)C(=O)OC`, the T/C (dose: 100.0 mg/kg/injection, schedule: Q01DX001 (ip), vehicle: saline with Tween-80) is reported as 102 % of control, the T/C (dose: 200.0 mg/kg/injection, schedule: Q01DX001 (ip), vehicle: saline with Tween-80) is reported as 100 % of control and the T/C (dose: 400.0 mg/kg/injection, schedule: Q01DX001 (ip), vehicle: saline with Tween-80) is reported as 103 % of control.

`CC(C)(C)c1cc(N)cc([N+](=O)[O-])c1` was tested, and the T/C (dose: 100.0 mg/kg/injection, schedule: Q04DX002 (ip), vehicle: other) was 109 % of control and the T/C (dose: 200.0 mg/kg/injection, schedule: Q04DX002 (ip), vehicle: other) was 102 % of control.

In the case of `CCOCCOCCSCc1ccccn1`, the T/C [1] is reported as 109 % of control, the T/C [2] is reported as 99 % of control and the T/C [3] is reported as 100 % of control.

For `COc1cccc(/C=C2/SC(=S)N(Cc3ccco3)C2=O)c1OC`, the T/C (dose: 12.5 mg/kg/injection, schedule: Q01DX005 (ip), vehicle: saline with Tween-80) was 100 % of control, the T/C (dose: 25.0 mg/kg/injection, schedule: Q01DX005 (ip), vehicle: saline with Tween-80) was 90 % of control and the T/C [4] was 90 % of control and 91 % of control.

In the case of `C[As](C)[Se]CC1OC2OC(C)(C)OC2C2OC(C)(C)OC12` (centres undefined), the T/C [5] is reported as 89 % of control, the T/C [6] is reported as 90 % of control and the T/C [7] is reported as 92 % of control.

For `CC(C)=CC(=O)NCCO`, the T/C (dose: 100.0 mg/kg/injection, schedule: Q04DX002 (ip), vehicle: saline) was 100 % of control, the T/C (dose: 200.0 mg/kg/injection, schedule: Q04DX002 (ip), vehicle: saline) was 100 % of control and the T/C (dose: 400.0 mg/kg/injection, schedule: Q04DX002 (ip), vehicle: saline) was 105 % of control.

`Cc1ccc(S(=O)(=O)OC2CC(C(=O)O)N(S(=O)(=O)c3ccc(C)cc3)C2)cc1` (centres undefined) was tested, and the T/C (dose: 100.0 mg/kg/injection, schedule: Q04DX003 (ip), vehicle: saline with Tween-80) was 100 % of control, the T/C (dose: 200.0 mg/kg/injection, schedule: Q04DX003 (ip), vehicle: saline with Tween-80) was 95 % of control and the T/C (dose: 400.0 mg/kg/injection, schedule: Q04DX003 (ip), vehicle: saline with Tween-80) was 95 % of control.

In the case of `CN(C)N1C(=O)c2c(Cl)c(Cl)c(Cl)c(Cl)c2C1=O`, the T/C [4] is reported as 94 % of control and the T/C [8] is reported as 89 % of control.

`Nc1ccc(Cl)cc1C(=O)c1ccccc1Cl` was tested, and the T/C [9] was 96 % of control, the T/C [10] was 96 % of control and the T/C [11] was 90 % of control.

`CCC(C)C(NC(=O)OC(C)(C)C)C(=O)O` (centres undefined) was tested, and the T/C [1] was 103 % of control, the T/C [2] was 100 % of control and the T/C [3] was 100 % of control.

With `CCc1nn(CCCN2CCN(c3cccc(Cl)c3)CC2)c(=O)n1CC` the T/C [12] was 114 % of control and the T/C [13] was 116 % of control.

In the case of `CN(C)c1nc(Cl)c2cc(Cl)ccc2n1`, the T/C (dose: 60.0 mg/kg/injection, schedule: Q01DX005 (ip), vehicle: Klucel (hydroxypropylcellulose) (HPC)) is reported as 100 % of control and the T/C (dose: 120.0 mg/kg/injection, schedule: Q01DX005 (ip), vehicle: Klucel (hydroxypropylcellulose) (HPC)) is reported as 99 % of control.

With `CC1=NN(c2ccccc2)C(=O)/C1=C1\SS/C(=C2\C(=O)N(c3ccccc3)N=C2C)S1` the T/C [14] was 100 % of control, the T/C [15] was 103 % of control and the T/C [5] was 121 % of control and 90 % of control. For the same molecule, the T/C [6] was 92 % of control and 94 % of control and the T/C [7] was 102 % of control.

For `COC(=O)c1cc(C=C(C)C)[nH]c(=O)c1C#N`, the T/C (dose: 30.0 mg/kg/injection, schedule: Q01DX005 (ip), vehicle: saline) was 99 % of control, the T/C (dose: 60.0 mg/kg/injection, schedule: Q01DX005 (ip), vehicle: saline) was 100 % of control and 107 % of control and the T/C (dose: 120.0 mg/kg/injection, schedule: Q01DX005 (ip), vehicle: saline) was 107 % of control.

In the case of `CC(=O)C1CO1` (centres undefined), the T/C (dose: 12.5 mg/kg/injection, schedule: Q01DX005 (ip), vehicle: saline) is reported as 105 % of control, the T/C (dose: 25.0 mg/kg/injection, schedule: Q01DX005 (ip), vehicle: saline) is reported as 107 % of control and the T/C (dose: 50.0 mg/kg/injection, schedule: Q01DX005 (ip), vehicle: saline) is reported as 110 % of control and 116 % of control.

With `CC1(O)C2CCCCC2C2CCCCC2C1(C)O` (centres undefined) the T/C [4] was 101 % of control, the T/C [8] was 100 % of control and the T/C (dose: 200.0 mg/kg/injection, schedule: Q01DX005 (ip), vehicle: saline with Tween-80) was 103 % of control.

`Cc1cc(Br)c(OC(=O)Nc2cccc(Cl)c2Cl)cc1C` was tested, and the T/C [16] was 88 % of control, the T/C (dose: 25.0 mg/kg/injection, schedule: Q01DX009 (ip), vehicle: saline) was 99 % of control and the T/C [17] was 88 % of control. The T/C [12] was 119 % of control and the T/C [18] was 114 % of control.

`CC1(C)CC(OP(=[Se])(c2ccccc2)c2ccccc2)CC(C)(C)N1O` was tested, and the T/C [19] was 96 % of control, the T/C [20] was 99 % of control and the T/C [21] was 104 % of control.

For `CCN(C=Nc1ccc(Cl)cc1C)CC`, the T/C [5] was 105 % of control and the T/C [6] was 117 % of control.

In the case of `CC(=O)Nc1ccc(C(C)C)cc1N`, the T/C [1] is reported as 100 % of control, the T/C [2] is reported as 101 % of control and the T/C [3] is reported as 107 % of control.

For `O=S(=O)(Cl)C(F)(F)C(F)(F)C(F)(F)C(F)(F)F`, the T/C [12] was 102 % of control, the T/C [13] was 103 % of control and the T/C (dose: 200.0 mg/kg/injection, schedule: Q01DX009 (ip), vehicle: saline) was 88 % of control.

In the case of `[Cl][Pt+2][Cl].[NH-]CC([NH-])c1ccccc1` (centres undefined), the T/C (dose: 6.25 mg/kg/injection, schedule: Q04DX002 (ip), vehicle: saline with Tween-80) is reported as 179 % of control, the T/C [19] is reported as 152 % of control and the T/C (dose: 12.5 mg/kg/injection, schedule: Q04DX002 (ip), vehicle: saline with Tween-80) is reported as 194 % of control. The T/C [20] was 179 % of control, the T/C (dose: 25.0 mg/kg/injection, schedule: Q04DX002 (ip), vehicle: saline with Tween-80) was 220 % of control and the T/C [21] was 157 % of control and 163 % of control.

`O=c1[nH]c(=O)c2ccccc2o1` was tested, and the T/C (dose: 6.25 mg/kg/injection, schedule: Q01DX009 (ip), vehicle: Klucel (hydroxypropylcellulose) (HPC)) was 104 % of control, the T/C [14] was 111 % of control and the T/C [15] was 110 % of control. The T/C [5] was 106 % of control.

For `C=CCSc1nc2ccc(NC(=O)CCC(=O)O)cc2s1`, the T/C [5] was 103 % of control, the T/C [6] was 111 % of control and the T/C [7] was 93 % of control.

For `CCN1c2ccccc2C(Cl)(c2ccc(N(C)C)cc2)c2ccccc21`, the T/C (dose: 6.25 mg/kg/injection, schedule: Q01DX009 (ip), vehicle: saline) was 116 % of control and the T/C [16] was 120 % of control.

With `O=[N+]([O-])c1cc2no[n+]([O-])c2cc1N1CCCCC1` the T/C (dose: 3.75 mg/kg/injection, schedule: Q01DX009 (ip), vehicle: saline) was 97 % of control, the T/C (dose: 3.75 mg/kg/injection, schedule: Q01DX009 (ip), vehicle: suspension in saline) was 94 % of control and the T/C (dose: 7.5 mg/kg/injection, schedule: Q01DX009 (ip), vehicle: saline) was 114 % of control. The T/C (dose: 7.5 mg/kg/injection, schedule: Q01DX009 (ip), vehicle: suspension in saline) was 103 % of control, the T/C (dose: 15.0 mg/kg/injection, schedule: Q01DX009 (ip), vehicle: saline) was 101 % of control and the T/C (dose: 15.0 mg/kg/injection, schedule: Q01DX009 (ip), vehicle: suspension in saline) was 103 % of control. For the same molecule, the T/C (dose: 30.0 mg/kg/injection, schedule: Q01DX009 (ip), vehicle: saline) was 108 % of control and the T/C (dose: 30.0 mg/kg/injection, schedule: Q01DX009 (ip), vehicle: suspension in saline) was 122 % of control.

In the case of `CN1CCC/C1=C1/CCc2ccccc2C1=O`, the T/C [1] is reported as 103 % of control, the T/C [2] is reported as 108 % of control and the T/C [3] is reported as 107 % of control.

For `Clc1cccc(C(Nc2nncs2)Nc2nncs2)c1`, the T/C [9] was 100 % of control, the T/C [10] was 100 % of control and the T/C [11] was 93 % of control.

`CN(C)C1C=C(c2ccccc2)OS(=O)(=O)C1` (centres undefined) was tested, and the T/C [17] was 99 % of control, the T/C [18] was 97 % of control and the T/C (dose: 200.0 mg/kg/injection, schedule: Q01DX009 (ip), vehicle: saline with Tween-80) was 113 % of control.

Reference: PubChem BioAssay AID330 (DTP/NCI, 2004)
